Assay results taken from the NIST ThermoML archive (doi:10.1021/je900757k).

Experiment: isobaric coefficient of expansion
Conditions: Liquid, DSC

CCCCCCCCC [nonane]
isobaric coefficient of expansion
Conditions	278.15 K	288.15 K	298.15 K	308.15 K	318.15 K	328.15 K	338.15 K	348.15 K
5000 kPa	0.001 1/K	0.00103 1/K	0.00105 1/K	0.00106 1/K	0.00108 1/K	0.0011 1/K	0.00113 1/K	0.00114 1/K
10000 kPa	0.000977 1/K	0.000997 1/K	0.00101 1/K	0.00103 1/K	0.00104 1/K	0.00106 1/K	0.00108 1/K	0.00109 1/K
15000 kPa	0.000954 1/K	0.000967 1/K	0.000984 1/K	0.000995 1/K	0.00101 1/K	0.00102 1/K	0.00103 1/K	0.00104 1/K
20000 kPa	0.000928 1/K	0.00094 1/K	0.000955 1/K	0.000962 1/K	0.00097 1/K	0.000984 1/K	0.000992 1/K	0.000998 1/K
25000 kPa	0.000907 1/K	0.000917 1/K	0.000927 1/K	0.000935 1/K	0.000941 1/K	0.000949 1/K	0.00096 1/K	0.000964 1/K
30000 kPa	0.000886 1/K	0.000898 1/K	0.000903 1/K	0.000912 1/K	0.000915 1/K	0.000921 1/K	0.000931 1/K	0.000931 1/K
35000 kPa	0.000868 1/K	0.000875 1/K	0.000878 1/K	0.000883 1/K	0.000889 1/K	0.000892 1/K	0.000899 1/K	0.0009 1/K
40000 kPa	0.000841 1/K	0.000853 1/K	0.000856 1/K	0.00086 1/K	0.000864 1/K	0.000865 1/K	0.000866 1/K	0.000869 1/K
45000 kPa	0.000827 1/K	0.000836 1/K	0.000839 1/K	0.000838 1/K	0.000841 1/K	0.000843 1/K	0.000846 1/K	0.000844 1/K
50000 kPa	0.000811 1/K	0.000819 1/K	0.000819 1/K	0.00082 1/K	0.000825 1/K	0.000822 1/K	0.000825 1/K	0.000823 1/K
55000 kPa	0.000803 1/K	0.000799 1/K	0.000803 1/K	0.000804 1/K	0.000806 1/K	0.000803 1/K	0.000807 1/K	0.000806 1/K

CCCCCCCCCCC [undecane]
isobaric coefficient of expansion
Conditions	278.15 K	288.15 K	298.15 K	308.15 K	318.15 K	328.15 K	338.15 K	348.15 K
5000 kPa	0.000936 1/K	0.000948 1/K	0.000965 1/K	0.000979 1/K	0.000993 1/K	0.00101 1/K	0.00102 1/K	0.00103 1/K
10000 kPa	0.000913 1/K	0.000924 1/K	0.000937 1/K	0.00095 1/K	0.00096 1/K	0.000971 1/K	0.000983 1/K	0.000991 1/K
15000 kPa	0.000893 1/K	0.0009 1/K	0.000912 1/K	0.000921 1/K	0.000933 1/K	0.00094 1/K	0.000946 1/K	0.000948 1/K
20000 kPa	0.000873 1/K	0.000879 1/K	0.00089 1/K	0.000897 1/K	0.000901 1/K	0.000909 1/K	0.000915 1/K	0.000917 1/K
25000 kPa	0.000854 1/K	0.000856 1/K	0.000865 1/K	0.00087 1/K	0.000874 1/K	0.000884 1/K	0.000888 1/K	0.00089 1/K
30000 kPa	0.000836 1/K	0.000843 1/K	0.000845 1/K	0.000848 1/K	0.000851 1/K	0.000857 1/K	0.00086 1/K	0.000859 1/K
35000 kPa	0.000819 1/K	0.00082 1/K	0.000825 1/K	0.000828 1/K	0.000829 1/K	0.000833 1/K	0.000834 1/K	0.000833 1/K
40000 kPa	0.000797 1/K	0.000801 1/K	0.000805 1/K	0.000806 1/K	0.000808 1/K	0.000806 1/K	0.00081 1/K	0.00081 1/K
45000 kPa	0.000785 1/K	0.000787 1/K	0.00079 1/K	0.000789 1/K	0.000787 1/K	0.00079 1/K	0.000789 1/K	0.000787 1/K
50000 kPa	0.000773 1/K	0.000773 1/K	0.000773 1/K	0.000774 1/K	0.000775 1/K	0.000775 1/K	0.000771 1/K	0.000769 1/K
55000 kPa	0.000765 1/K	0.000756 1/K	0.000759 1/K	0.000759 1/K	0.000758 1/K	0.000759 1/K	0.000754 1/K	0.000752 1/K

c1ccccc1 [benzene]
isobaric coefficient of expansion
Conditions	298.15 K	308.15 K	318.15 K	328.15 K	338.15 K	348.15 K
5000 kPa	0.0012 1/K	0.00121 1/K	0.00123 1/K	0.00126 1/K	0.00129 1/K	0.00132 1/K
10000 kPa	0.00116 1/K	0.00118 1/K	0.00119 1/K	0.00121 1/K	0.00123 1/K	0.00125 1/K
15000 kPa	0.00114 1/K	0.00115 1/K	0.00115 1/K	0.00117 1/K	0.00118 1/K	0.0012 1/K
20000 kPa	0.00111 1/K	0.00112 1/K	0.00113 1/K	0.00113 1/K	0.00114 1/K	0.00115 1/K
25000 kPa	0.00108 1/K	0.00108 1/K	0.00109 1/K	0.0011 1/K	0.0011 1/K	0.00111 1/K
30000 kPa	0.00105 1/K	0.00106 1/K	0.00106 1/K	0.00106 1/K	0.00107 1/K	0.00108 1/K
35000 kPa	0.00103 1/K	0.00103 1/K	0.00104 1/K	0.00104 1/K	0.00104 1/K	0.00104 1/K
40000 kPa	0.00101 1/K	0.00101 1/K	0.00101 1/K	0.00101 1/K	0.00101 1/K	0.00102 1/K
45000 kPa	0.000988 1/K	0.00099 1/K	0.000989 1/K	0.000989 1/K	0.000985 1/K	0.000986 1/K
50000 kPa	0.000971 1/K	0.000972 1/K	0.00097 1/K	0.000966 1/K	0.000966 1/K	0.000963 1/K
55000 kPa	0.000954 1/K	0.000955 1/K	0.000951 1/K	0.000948 1/K	0.000945 1/K	0.000941 1/K

CCCCCCCCCCCCCCC [pentadecane]
isobaric coefficient of expansion
Conditions	298.15 K	308.15 K	318.15 K	328.15 K	338.15 K	348.15 K
5000 kPa	0.000896 1/K	0.000898 1/K	0.000901 1/K	0.000904 1/K	0.000914 1/K	0.000925 1/K
10000 kPa	0.000871 1/K	0.000873 1/K	0.000873 1/K	0.000873 1/K	0.000883 1/K	0.000886 1/K
15000 kPa	0.000848 1/K	0.000848 1/K	0.00085 1/K	0.000846 1/K	0.000846 1/K	0.000854 1/K
20000 kPa	0.000825 1/K	0.000824 1/K	0.000824 1/K	0.000823 1/K	0.000821 1/K	0.000826 1/K
25000 kPa	0.000805 1/K	0.000803 1/K	0.000803 1/K	0.000798 1/K	0.000798 1/K	0.000801 1/K
30000 kPa	0.000793 1/K	0.000786 1/K	0.000786 1/K	0.000781 1/K	0.000782 1/K	0.000783 1/K
35000 kPa	0.000772 1/K	0.000767 1/K	0.000764 1/K	0.000762 1/K	0.00076 1/K	0.000758 1/K
40000 kPa	0.000756 1/K	0.000751 1/K	0.000746 1/K	0.000744 1/K	0.000738 1/K	0.000737 1/K
45000 kPa	0.000742 1/K	0.000734 1/K	0.000731 1/K	0.000726 1/K	0.000724 1/K	0.00072 1/K
50000 kPa	0.00073 1/K	0.000721 1/K	0.000718 1/K	0.00071 1/K	0.00071 1/K	0.000705 1/K
55000 kPa	0.000717 1/K	0.000709 1/K	0.000705 1/K	0.000699 1/K	0.000697 1/K	0.000694 1/K
